23 compounds from PubChem BioAssay AID330 (DTP/NCI, 2004) can be followed below.

In the assay the test system is P388 leukemia ip, CD2F1 mice, survival T/C. In words: NCI In Vivo Anticancer Drug Screen. Data for tumor model P388 Leukemia (intraperitoneal) in CD2F1 (CDF1) mice. Particulars: endpoint: median survival time, higher = longer survival. In outline: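 Mice carrying the transplanted tumor received test compound or vehicle. Survival was recorded in each group, and the value is the treated-group measurement divided by that of the vehicle-treated control group.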

The mark [1] stands for this setting: dose: 50.0 mg/kg/injection, schedule: Q01DX005 (ip), vehicle: saline with Tween-80.
Where [2] appears, read: dose: 100.0 mg/kg/injection, schedule: Q01DX005 (ip), vehicle: saline with Tween-80.
[3] abbreviates: dose: 200.0 mg/kg/injection, schedule: Q01DX005 (ip), vehicle: saline with Tween-80.
The mark [4] stands for this setting: dose: 60.0 mg/kg/injection, schedule: Q01DX005 (ip), vehicle: Klucel (hydroxypropylcellulose) (HPC).
The mark [5] stands for this setting: dose: 120.0 mg/kg/injection, schedule: Q01DX005 (ip), vehicle: Klucel (hydroxypropylcellulose) (HPC).
Where [6] appears, read: dose: 240.0 mg/kg/injection, schedule: Q01DX005 (ip), vehicle: Klucel (hydroxypropylcellulose) (HPC).
Setting [7] is: dose: 50.0 mg/kg/injection, schedule: Q01DX009 (ip), vehicle: saline.
The mark [8] stands for this setting: dose: 100.0 mg/kg/injection, schedule: Q01DX009 (ip), vehicle: saline.
Setting [9] is: dose: 100.0 mg/kg/injection, schedule: Q04DX003 (ip), vehicle: water.
[10] abbreviates: dose: 200.0 mg/kg/injection, schedule: Q04DX003 (ip), vehicle: water.
[11] abbreviates: dose: 100.0 mg/kg/injection, schedule: Q01DX001 (ip), vehicle: saline with Tween-80.
Where [12] appears, read: dose: 200.0 mg/kg/injection, schedule: Q01DX001 (ip), vehicle: saline with Tween-80.
Setting [13] is: dose: 60.0 mg/kg/injection, schedule: Q01DX005 (ip), vehicle: saline with Tween-80.
[14] abbreviates: dose: 120.0 mg/kg/injection, schedule: Q01DX005 (ip), vehicle: saline with Tween-80.
Where [15] appears, read: dose: 25.0 mg/kg/injection, schedule: Q01DX009 (ip), vehicle: Klucel (hydroxypropylcellulose) (HPC).

Structures are written as SMILES. “And” between values parts separate entries of the source, which are not always exact repeats. Equal values may be shown once. Inconclusive results and toxic doses are left out.

For the compound `Cc1cc2nnc(-c3cccc([N+](=O)[O-])c3)n2c2nnnn12`, the T/C is, setting by setting: (dose: 25.0 mg/kg/injection, schedule: Q01DX005 (ip), vehicle: saline with Tween-80) 100 % of control; under setting [1], 102 % of control; under setting [2], 98 % of control; under setting [3], 100 % of control.
Regarding `O=C1Nc2ccccc2C1=Nc1ccc2[nH]c3ccccc3c2c1`, the T/C was 92 % of control under setting [4], 93 % of control under setting [5] and 88 % of control under setting [6].
Turning to `NC(=S)N/N=C/c1ccc(-c2ccccc2)cc1`, the T/C reads like this: (dose: 12.5 mg/kg/injection, schedule: Q04DX003 (ip), vehicle: saline with Tween-80) 110 % of control; (dose: 25.0 mg/kg/injection, schedule: Q04DX003 (ip), vehicle: saline with Tween-80) 120 % of control; (dose: 50.0 mg/kg/injection, schedule: Q04DX003 (ip), vehicle: saline with Tween-80) 100 % of control.
Consider `C[N+](C)(CCS(=O)(=O)[O-])C1CCCCC1`, for which the T/C by setting is: under setting [7], 98 % of control; under setting [8], 90 % of control; (dose: 200.0 mg/kg/injection, schedule: Q01DX009 (ip), vehicle: saline) 91 % of control.
As for `CC(=O)OC(C(Br)CBr)C(OC(C)=O)C(Br)CBr` (stereo not given), the T/C is, setting by setting: (dose: 7.5 mg/kg/injection, schedule: Q01DX009 (ip), vehicle: saline) 104 % of control; (dose: 15.0 mg/kg/injection, schedule: Q01DX009 (ip), vehicle: saline) 110 % of control; (dose: 30.0 mg/kg/injection, schedule: Q01DX009 (ip), vehicle: saline) 106 % of control.
For the compound `NNc1c(C(N)=O)c2c(N)ncnc2n1C1OC(CO)C(O)C1O` (stereo not given), the T/C was 157 % of control (dose: 3.12 mg/kg/injection, schedule: Q01DX005 (ip), vehicle: Klucel (hydroxypropylcellulose) (HPC)); 166 % of control (dose: 6.25 mg/kg/injection, schedule: Q01DX005 (ip), vehicle: Klucel (hydroxypropylcellulose) (HPC)); 157 % of control (dose: 12.5 mg/kg/injection, schedule: Q01DX005 (ip), vehicle: Klucel (hydroxypropylcellulose) (HPC)); 115 % of control (dose: 50.0 mg/kg/injection, schedule: Q04DX003 (ip), vehicle: Klucel (hydroxypropylcellulose) (HPC)); 115 % of control (dose: 100.0 mg/kg/injection, schedule: Q04DX003 (ip), vehicle: Klucel (hydroxypropylcellulose) (HPC)); 120 % of control under setting [9]. Moreover, the T/C under setting [10] was 86 % of control.
Consider `CC(C)(C)CC(C)(C)c1ccc(OCc2ccc(C(F)(F)F)cc2)cc1`, for which the T/C by setting is: (dose: 50.0 mg/kg/injection, schedule: Q01DX009 (ip), vehicle: saline with Tween-80) 100 % of control; (dose: 100.0 mg/kg/injection, schedule: Q01DX009 (ip), vehicle: saline with Tween-80) 96 % of control; (dose: 200.0 mg/kg/injection, schedule: Q01DX009 (ip), vehicle: saline with Tween-80) 100 % of control.
Regarding `O=C(c1ccccc1C(=O)N1CCCO1)N1CCCO1`, the T/C reads like this: under setting [4], 93 % of control; under setting [5], 100 % of control; under setting [6], 100 % of control.
`CN(C)CC1=c2ccccc2=N/C1=C\c1ccc(N(C)C)cc1`: the T/C under setting [11] is 89 % of control; the T/C under setting [12] was 88 % of control; the T/C (dose: 400.0 mg/kg/injection, schedule: Q01DX001 (ip), vehicle: saline with Tween-80) is 92 % of control.
In the case of `CCN(CC)CCOC(=O)Nc1cc(C(F)(F)F)ccc1Cl`, the T/C is, setting by setting: under setting [13], 111 % of control; under setting [14], 109 % of control; (dose: 240.0 mg/kg/injection, schedule: Q01DX005 (ip), vehicle: saline with Tween-80) 90 % of control.
Consider `C[C@]12C=CC(=O)NC[C@@H]1CC[C@@H]1[C@@H]2CC[C@]2(C)[C@@H](OC(=O)COc3ccc(N(CCCl)CCCl)cc3)CC[C@@H]12`, for which the T/C reads like this: (dose: 7.5 mg/kg/injection, schedule: Q01DX005 (ip), vehicle: saline with Tween-80) 120 % of control; (dose: 15.0 mg/kg/injection, schedule: Q01DX005 (ip), vehicle: saline with Tween-80) 120 % of control; (dose: 30.0 mg/kg/injection, schedule: Q01DX005 (ip), vehicle: saline with Tween-80) 151 % of control; under setting [13], 198 % of control and 255 % of control; under setting [14], 157 % of control.
Turning to `O=C1CCC2(c3ccccc3)CCCN=C2N1` (stereo not given), the T/C was 104 % of control under setting [11] and 99 % of control under setting [12].
On to `CC(C)CC(=N)CC(C)C`, for which the T/C is 100 % of control under setting [1], 100 % of control under setting [2] and 96 % of control under setting [3].
Consider `O=C1CC2C3Nc4ccccc4C3CCN2C2=C1CC(OC(=O)c1ccccc1)CC2` (stereo not given), for which the T/C reads like this: (dose: 100.0 mg/kg/injection, schedule: Q04DX003 (ip), vehicle: saline sonified) 100 % of control; (dose: 200.0 mg/kg/injection, schedule: Q04DX003 (ip), vehicle: saline sonified) 100 % of control; (dose: 400.0 mg/kg/injection, schedule: Q04DX003 (ip), vehicle: saline sonified) 95 % of control.
Regarding `Cc1ccc(S(=O)(=O)N/N=C\c2c(-c3ccc(Cl)cc3)nc3sccn23)cc1`, the T/C (dose: 100.0 mg/kg/injection, schedule: Q01DX001 (ip), vehicle: Klucel (hydroxypropylcellulose) (HPC)) is 93 % of control and the T/C (dose: 200.0 mg/kg/injection, schedule: Q01DX001 (ip), vehicle: Klucel (hydroxypropylcellulose) (HPC)) is 94 % of control.
`C/C(=N\N(C)/C=N/S(C)(=O)=O)c1ccccc1`: the T/C is 98 % of control (dose: 50.0 mg/kg/injection, schedule: Q01DX005 (ip), vehicle: Klucel (hydroxypropylcellulose) (HPC)); 95 % of control (dose: 100.0 mg/kg/injection, schedule: Q01DX005 (ip), vehicle: Klucel (hydroxypropylcellulose) (HPC)); 104 % of control (dose: 200.0 mg/kg/injection, schedule: Q01DX005 (ip), vehicle: Klucel (hydroxypropylcellulose) (HPC)).
Turning to `O=C(Nc1nnc(-c2ccccc2)s1)c1cc(=O)c2ccccc2o1`, the T/C runs as follows: under setting [1], 93 % of control; under setting [2], 96 % of control; under setting [3], 92 % of control.
Regarding `COc1cc2c(c(OC)c1OC)-c1ccc(S(=O)(=O)Cc3ccccc3)c(=O)cc1C(NC(C)=O)CC2` (stereo not given), the T/C was 95 % of control (dose: 0.78 mg/kg/injection, schedule: Q01DX009 (ip), vehicle: Klucel (hydroxypropylcellulose) (HPC)); 105 % of control and 106 % of control and 117 % of control (dose: 1.56 mg/kg/injection, schedule: Q01DX009 (ip), vehicle: Klucel (hydroxypropylcellulose) (HPC)); 100 % of control and 107 % of control and 115 % of control (dose: 3.12 mg/kg/injection, schedule: Q01DX009 (ip), vehicle: Klucel (hydroxypropylcellulose) (HPC)); 104 % of control and 107 % of control and 96 % of control (dose: 6.25 mg/kg/injection, schedule: Q01DX009 (ip), vehicle: Klucel (hydroxypropylcellulose) (HPC)); 105 % of control and 109 % of control and 113 % of control (dose: 12.5 mg/kg/injection, schedule: Q01DX009 (ip), vehicle: Klucel (hydroxypropylcellulose) (HPC)); 98 % of control and 101 % of control and 88 % of control under setting [15].
For `O=C(Cc1cccc2c(=O)cc(-c3ccccc3)oc12)OCCN1CCOCC1`, the T/C reads like this: under setting [7], 99 % of control; under setting [8], 100 % of control.
Regarding `C/C(N)=C/C(=O)Nc1ccccc1`, the T/C by setting is: under setting [15], 109 % of control; (dose: 50.0 mg/kg/injection, schedule: Q01DX009 (ip), vehicle: Klucel (hydroxypropylcellulose) (HPC)) 109 % of control; (dose: 100.0 mg/kg/injection, schedule: Q01DX009 (ip), vehicle: Klucel (hydroxypropylcellulose) (HPC)) 97 % of control; (dose: 200.0 mg/kg/injection, schedule: Q01DX009 (ip), vehicle: Klucel (hydroxypropylcellulose) (HPC)) 108 % of control.
Regarding `CCCCCCC(=O)CC(SCCS)c1ccc(Cl)c(Cl)c1` (stereo not given), the T/C is 102 % of control under setting [7] and 89 % of control under setting [8].
Consider `CNC(=O)N(C)C1OC(CO)C(O)C1O` (stereo not given), for which the T/C is, setting by setting: under setting [9], 113 % of control; under setting [10], 119 % of control; (dose: 400.0 mg/kg/injection, schedule: Q04DX003 (ip), vehicle: water) 119 % of control.
In the case of `CC(C)Cn1c(Cl)c(C(=O)O)c2ccccc21`, the T/C is 92 % of control (dose: 100.0 mg/kg/injection, schedule: Q04DX002 (ip), vehicle: Klucel (hydroxypropylcellulose) (HPC)) and 88 % of control (dose: 200.0 mg/kg/injection, schedule: Q04DX002 (ip), vehicle: Klucel (hydroxypropylcellulose) (HPC)).
